Patent publication US20240226106A1, “INHIBITORS OF PLASMA KALLIKREIN” (SHIRE HUMAN GENETIC THERAPIES, INC., priority 2021, published 2024)
Read-outs that look alike come from different tables or passages of the source.

Key:
[1] = target: T1, plasma kallikrein (Homo sapiens, UniProt P03952); experiment: Neat human plasma assay (fluorogenic peptide), contact pathway-activated plasma; format: biochemical; settings: read-out: Human Plasma Assay: IC90
T1 construct: from tissue; host or cells: sodium citrate collected human plasma
Protocol: To analyze inhibition of plasma kallikrein in an ex vivo setting, the potency of compounds was measure in contact pathway-activated plasma assays. In a fluorogenic peptide substrate assay, test compounds dissolved in DMSO were added to sodium citrate collected human or rat plasma in a 96-well microplate. Alternatively, citrated plasma was collected from rats administered the compounds orally or by IV. 10 nM of human FXIIa (Enzyme Research Laboratories) diluted in PKa buffer (20 mM Tris-HCl, pH 7.5, 150 mM NaCl, 1 mM EDTA, 0.100 PEG-8000, and 0.1% Triton X-100) was added to the plasma, followed by the 100 μM of the profluorescent, synthetic plasma kallikrein substrate PFR-AMC (also diluted in PKa buffer). Final plasma concentration in the reaction was […]. Fluorescence was immediately monitored by excitation/emission wavelengths of 360 nm/480 nm respectively over a period of 5 minutes in a microplate reader. The resulting linear increase in fluorescence emission (reflecting PKa proteolysis of PFR-AMC substrate) was fit to extract a proteolytic rate (fluorescent units over time), and this rate was subsequently plotted against compound inhibitor concentration. Resulting plots were fit to a standard 4-parameter IC50/C90 equation to determine min/max values, IC50/90, and slope. All experimental steps were performed at room temperature.

[2] = target: human activated kallikrein enzyme (Homo sapiens, UniProt P03952); experiment: Inhibition of human activated plasma kallikrein, fluorogenic peptide substrate (PFR-AMC), 500 pM enzyme format; format: biochemical; settings: 500 pM activated kallikrein, 30 min preincubation, 10 min reaction, room temperature, read-out: Primary Dose Response Assay: Average EC50
Procedure, shortened: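 Enzyme at 500 pM with […] PFR-AMC in 20 mM Tris pH 7.5, 1 mM EDTA, 150 mM NaCl, 0.1% PEG-400, 0.1% Triton X-100. Inhibitor preincubated 30 min, then 10 min reaction at room temperature; AMC fluorescence read at 380 nm excitation/460 nm emission.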

[3] = citrated human plasma, 10 nM human FXIIa activation, 100 μM PFR-AMC, room temperature

T1 sequence (P03952 391-638 limits assumed): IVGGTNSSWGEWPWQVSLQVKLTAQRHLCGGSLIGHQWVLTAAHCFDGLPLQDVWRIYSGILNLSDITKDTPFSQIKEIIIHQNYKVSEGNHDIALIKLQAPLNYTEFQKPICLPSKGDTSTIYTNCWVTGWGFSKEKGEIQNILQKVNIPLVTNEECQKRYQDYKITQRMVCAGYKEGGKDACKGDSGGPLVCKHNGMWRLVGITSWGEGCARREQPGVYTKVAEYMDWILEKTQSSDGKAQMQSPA
T1 sequence (P03952 20-390 partner limits assumed): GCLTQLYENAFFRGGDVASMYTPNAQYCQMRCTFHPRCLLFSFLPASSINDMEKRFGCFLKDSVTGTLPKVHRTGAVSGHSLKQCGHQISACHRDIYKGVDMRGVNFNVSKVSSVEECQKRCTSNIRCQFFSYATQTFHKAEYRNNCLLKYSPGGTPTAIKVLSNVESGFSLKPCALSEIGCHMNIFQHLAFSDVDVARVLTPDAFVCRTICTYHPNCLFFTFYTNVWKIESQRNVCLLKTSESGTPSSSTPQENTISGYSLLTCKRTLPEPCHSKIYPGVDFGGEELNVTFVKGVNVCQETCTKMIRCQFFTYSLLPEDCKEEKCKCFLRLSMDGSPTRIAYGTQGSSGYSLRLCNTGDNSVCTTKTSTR
Chain of human activated kallikrein enzyme (P03952 391-638 limits assumed): as the sequence (P03952 391-638 limits assumed) above
Chain of human activated kallikrein enzyme (P03952 20-390 partner limits assumed): as the sequence (P03952 20-390 partner limits assumed) above

SMILES	IC90 [1, 3] [nM]	EC50 [2] [nM]	IC90 [1] [nM]
Cc1ccnc([C@H]2C[C@@H]2C(=O)Nc2cc(N(C)Cc3cn4cc(C5CC5)nc(N5CC(=O)N(C)C5=O)c4n3)ncn2)n1 [Example 83, (1S,2S)—N-(6-(((6-cyclopropyl-8-(3-methyl-2,4-dioxoimidazolidin-1-yl)imidazo[1,2-a]pyrazin-2-yl)methyl)(methyl)amino)pyrimidin-4-yl)-2-(4-methylpyrimidin-2-yl)cyclopropane-1-carboxamide]	< 500	< 2.5	–
Cc1ccnc([C@H]2C[C@@H]2C(=O)Nc2cc(N(C)Cc3cn4cc(C5CC5)nc(N5CCCC5=O)c4n3)ncn2)n1 [Example 85, (1S,2S)—N-(6-(((6-cyclopropyl-8-(2-oxopyrrolidin-1-yl)imidazo[1,2-a]pyrazin-2-yl)methyl)(methyl)amino)pyrimidin-4-yl)-2-(4-methylpyrimidin-2-yl)cyclopropane-1-carboxamide]	< 500	< 2.5	–
Cc1ccnc([C@H]2C[C@@H]2C(=O)Nc2cc(N(C)Cc3nc4cc(C5CC5)cc(N5CC(=O)N(C)C5=O)c4[nH]3)nc(C)n2)n1 [Example 86, (S,2S)—N-(6-(((5-cyclopropyl-7-(3-methyl-2,4-dioxoimidazolidin-1-yl)-1H-benzo[d]imidazol-2-yl)methyl)(methyl)amino)-2-methylpyrimidin-4-yl)-2-(4-methylpyrimidin-2-yl)cyclopropane-1-carboxamide]	500 to 5000	< 2.5	–
Cc1ccnc([C@H]2C[C@@H]2C(=O)Nc2nc(C)nc(OCc3cn4cc(C5CC5)nc(N5CC(=O)N(C)C5=O)c4n3)n2)n1 [Example 87, (1S,2S)—N-(4-((6-cyclopropyl-8-(3-methyl-2,4-dioxoimidazolidin-1-yl)imidazo[1,2-a]pyrazin-2-yl)methoxy)-6-methyl-1,3,5-triazin-2-yl)-2-(4-methylpyrimidin-2-yl)cyclopropane-1-carboxamide]	500 to 5000	< 2.5	–
Cc1ccnc([C@H]2C[C@@H]2C(=O)Nc2cc(N(C)Cc3cn4cc(C5CC5)cnc4n3)nc(C)n2)n1 [Example 90, (1S,2S)—N-(6-(((6-cyclopropylimidazo[1,2-a]pyrimidin-2-yl)methyl)(methyl)amino)-2-methylpyrimidin-4-yl)-2-(4-methylpyrimidin-2-yl)cyclopropane-1-carboxamide]	5000 to 65000	< 2.5	–
Cc1ccnc([C@H]2C[C@@H]2C(=O)Nc2cc(NCc3ccc4ncc(C5CC5)cc4c3)ncn2)n1 [Example 93, (1S,2S)—N-(6-(((3-cyclopropylquinolin-6-yl)methyl)amino)pyrimidin-4-yl)-2-(4-methylpyrimidin-2-yl)cyclopropane-1-carboxamide]	< 500	< 2.5	–
Cc1ccnc([C@H]2C[C@@H]2C(=O)Nc2cc(OCc3cn4cc(C5CC5)cnc4n3)cnn2)n1 [Example 94, (1S,2S)—N-(5-((6-cyclopropylimidazo[1,2-a]pyrimidin-2-yl)methoxy)pyridazin-3-yl)-2-(4-methylpyrimidin-2-yl)cyclopropane-1-carboxamide]	< 500	< 2.5	–
Cc1ccnc([C@H]2C[C@@H]2C(=O)Nc2cc(OCc3cn4nc(C5CC5)cc(N5CC(=O)N(C)C5=O)c4n3)cnn2)n1 [Example 97, (1S,2S)—N-(5-((6-cyclopropyl-8-(3-methyl-2,4-dioxoimidazolidin-1-yl)imidazo[1,2-b]pyridazin-2-yl)methoxy)pyridazin-3-yl)-2-(4-methylpyrimidin-2-yl)cyclopropane-1-carboxamide]	< 500	< 2.5	–
Cc1ccnc([C@H]2C[C@@H]2C(=O)Nc2cc(NCc3cc(N4CC(=O)N(C)C4=O)c4ncc(C5CC5)cc4c3)ncn2)n1 [Example 98, (1S,2S)—N-(6-(((3-cyclopropyl-8-(3-methyl-2,4-dioxoimidazolidin-1-yl)quinolin-6-yl)methyl)amino)pyrimidin-4-yl)-2-(4-methylpyrimidin-2-yl)cyclopropane-1-carboxamide]	< 500	< 2.5	–
Cc1ccnc([C@H]2C[C@@H]2C(=O)Nc2cc(NCc3cc4cc(C5CC5)cc(N5CC(=O)N(C)C5=O)n4n3)nc(C)n2)n1 [Example 99, (1S,2S)—N-(6-(((5-cyclopropyl-7-(3-methyl-2,4-dioxoimidazolidin-1-yl)pyrazolo[1,5-a]pyridin-2-yl)methyl)amino)-2-methylpyrimidin-4-yl)-2-(4-methylpyrimidin-2-yl)cyclopropane-1-carboxamide]	–	< 2.5	< 500
Cc1ccnc([C@H]2C[C@@H]2C(=O)Nc2cc(OCc3cc4cc(C5CC5)cc(N5CC(=O)N(C)C5=O)n4n3)cnn2)n1 [Example 100, (1S,2S)—N-(5-((5-cyclopropyl-7-(3-methyl-2,4-dioxoimidazolidin-1-yl)pyrazolo[1,5-a]pyridin-2-yl)methoxy)pyridazin-3-yl)-2-(4-methylpyrimidin-2-yl)cyclopropane-1-carboxamide]	–	< 2.5	< 500

More lines, main results first:

IC90 [1, 3] [nM]	EC50 [2] [nM]	SMILES	IC90 [1] [nM]
500 to 5000	2.5 to 25	O=C(Nc1cc(N2C[C@@H](O)C[C@@H]2c2cn3nc(C4CC4)ccc3n2)ncn1)[C@H]1C[C@@H]1c1cccc(Cl)c1 [Example 60, (1S,2S)-2-(3-chlorophenyl)-N-(6-((2R,4S)-2-(6-cyclopropylimidazo[1,2-b]pyridazin-2-yl)-4-hydroxypyrrolidin-1-yl)pyrimidin-4-yl)cyclopropane-1-carboxamide]	–
500 to 5000	< 2.5	O=C(Nc1cc(N2C[C@@H](O)C[C@@H]2c2cn3nc(C4CC4)ccc3n2)ncn1)[C@H]1C[C@@H]1c1cc(Cl)ccn1 [Example 61, (1S,2S)-2-(4-chloropyridin-2-yl)-N-(6-((2R,4S)-2-(6-cyclopropylimidazo[1,2-b]pyridazin-2-yl)-4-hydroxypyrrolidin-1-yl)pyrimidin-4-yl)cyclopropane-1-carboxamide]	–
500 to 5000	< 2.5	CN1C(=O)CN(c2cc(C3CC3)nn3cc(CNc4cc(NC(=O)[C@H]5C[C@@H]5c5cc(Cl)ccn5)ncn4)nc23)C1=O [Example 63, (1S,2S)-2-(4-chloropyridin-2-yl)-N-(6-(((6-cyclopropyl-8-(3-methyl-2,4-dioxoimidazolidin-1-yl)imidazo[1,2-b]pyridazin-2-yl)methyl)amino)pyrimidin-4-yl)cyclopropane-1-carboxamide]	–
500 to 5000	< 2.5	O=C(Nc1cc(NCc2cn3cc(C4CC4)cnc3n2)ncn1)[C@H]1C[C@@H]1c1cc(Cl)ccn1 [Example 66, (1S,2S)-2-(4-chloropyridin-2-yl)-N-(6-(((6-cyclopropylimidazo[1,2-a]pyrimidin-2-yl)methyl)amino)pyrimidin-4-yl)cyclopropane-1-carboxamide]	–
< 500	< 2.5	O=C(Nc1cc(N2C[C@@H](O)C[C@@H]2c2cn3cc(C4CC4)cnc3n2)ncn1)[C@H]1C[C@@H]1c1cc(Cl)ccn1 [Example 73, (1S,2S)-2-(4-chloropyridin-2-yl)-N-(6-((2R,4S)-2-(6-cyclopropylimidazo[1,2-a]pyrimidin-2-yl)-4-hydroxypyrrolidin-1-yl)pyrimidin-4-yl)cyclopropane-1-carboxamide]	–
